# Tests used:
# heart rate = conditions: Starling heart-lung preparation of the dog; cited from earlier work
# BChE in rat heart = BChE in rat heart (Rattus norvegicus, UniProt Q9JKC1); assay: Radiometric cholinesterase assay, BChE activity in cardiac homogenates; format: biochemical
# [1] = target: T1, muscarinic receptors in heart (Rattus norvegicus, UniProt P10980); assay: [3H]oxotremorine-M displacement assay, cardiac membranes; format: binding; conditions: for [3H]Oxotremorine-M maximum displacement: 1 nM [3H]OXO, 21°C, 90 min, mean ± S.E.
# T1 sequence (P10980 1-466): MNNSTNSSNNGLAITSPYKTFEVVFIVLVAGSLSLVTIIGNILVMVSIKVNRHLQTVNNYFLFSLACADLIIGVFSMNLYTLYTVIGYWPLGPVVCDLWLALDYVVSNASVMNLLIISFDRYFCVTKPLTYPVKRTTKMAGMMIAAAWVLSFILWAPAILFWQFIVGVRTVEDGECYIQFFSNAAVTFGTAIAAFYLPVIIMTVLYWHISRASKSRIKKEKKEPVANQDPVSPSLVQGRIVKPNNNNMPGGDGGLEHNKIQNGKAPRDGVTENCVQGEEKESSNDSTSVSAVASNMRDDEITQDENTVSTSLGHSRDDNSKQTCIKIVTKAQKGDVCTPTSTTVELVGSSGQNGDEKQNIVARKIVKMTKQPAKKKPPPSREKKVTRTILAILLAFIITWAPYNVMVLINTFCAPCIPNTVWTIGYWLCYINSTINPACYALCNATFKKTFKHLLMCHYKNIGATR
# [2] = system: muscarinic receptors in cortex; assay: [3H]oxotremorine-M displacement assay, cortical membranes; format: binding, rat; conditions: for [3H]Oxotremorine-M maximum displacement: 1 nM [3H]OXO, 21°C, 90 min, mean ± S.E.
# [3] = system: cardiac muscarinic receptors; conditions: cited from earlier work
# rats [4] = conditions: cited from earlier work
# rats [5] = conditions: aged versus adult rats; cited from earlier work
# AChE in rat heart = target: T2, AChE in rat heart (Rattus norvegicus, UniProt P37136); assay: Radiometric cholinesterase assay, AChE activity in cardiac homogenates; format: biochemical; conditions: heart and cortex (Tables 2 and 3)
# T2 sequence (P37136 32-614): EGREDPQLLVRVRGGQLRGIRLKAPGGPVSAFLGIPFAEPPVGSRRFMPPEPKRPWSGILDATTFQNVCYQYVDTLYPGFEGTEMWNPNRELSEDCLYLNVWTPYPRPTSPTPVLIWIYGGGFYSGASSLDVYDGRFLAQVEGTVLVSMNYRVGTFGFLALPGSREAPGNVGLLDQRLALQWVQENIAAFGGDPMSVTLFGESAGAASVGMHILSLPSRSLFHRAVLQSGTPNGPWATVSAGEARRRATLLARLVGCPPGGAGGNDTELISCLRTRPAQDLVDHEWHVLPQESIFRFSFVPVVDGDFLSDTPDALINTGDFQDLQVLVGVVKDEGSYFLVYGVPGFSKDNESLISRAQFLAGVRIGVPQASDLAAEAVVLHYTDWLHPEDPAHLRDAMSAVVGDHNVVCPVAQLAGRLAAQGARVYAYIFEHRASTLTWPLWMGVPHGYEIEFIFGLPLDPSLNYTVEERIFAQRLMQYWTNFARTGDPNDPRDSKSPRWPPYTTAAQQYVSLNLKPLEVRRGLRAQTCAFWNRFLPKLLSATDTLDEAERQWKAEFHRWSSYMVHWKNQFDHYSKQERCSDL
# Chain of BChE in rat heart (Q9JKC1 24-597): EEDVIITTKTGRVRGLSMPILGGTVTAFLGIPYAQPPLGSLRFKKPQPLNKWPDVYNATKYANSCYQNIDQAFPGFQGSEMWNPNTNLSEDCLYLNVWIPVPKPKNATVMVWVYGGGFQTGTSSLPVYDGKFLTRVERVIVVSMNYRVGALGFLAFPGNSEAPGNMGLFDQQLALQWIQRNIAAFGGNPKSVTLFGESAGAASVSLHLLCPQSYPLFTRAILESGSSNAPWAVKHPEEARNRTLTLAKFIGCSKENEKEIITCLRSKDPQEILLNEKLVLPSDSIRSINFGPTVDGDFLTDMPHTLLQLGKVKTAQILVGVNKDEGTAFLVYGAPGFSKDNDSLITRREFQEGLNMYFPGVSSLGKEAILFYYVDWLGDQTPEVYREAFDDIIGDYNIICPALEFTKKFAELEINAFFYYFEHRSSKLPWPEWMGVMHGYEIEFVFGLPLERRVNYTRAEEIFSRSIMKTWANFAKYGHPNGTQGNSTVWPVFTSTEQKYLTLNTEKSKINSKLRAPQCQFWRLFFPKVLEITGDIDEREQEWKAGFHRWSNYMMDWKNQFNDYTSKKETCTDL
smiles,measurement,setting,value
"C=CC[N+](C)(C)c1ccc(CCC(=O)CCc2ccc([N+](C)(C)CC=C)cc2)cc1.[Br-].[Br-] [BW 284C51, 1,5-bis (allyldimethylammoniumphenyl) pentane-3-dibromide]",Effect on heart rate,heart rate,had no effect
"CCOP(=O)(OCC)Oc1nc(Cl)c(Cl)cc1Cl [Chlorpyrifos oxon, O,O′-diethyl-O-3,5,6-trichloro-2-pyridinyl phosphate]",Sensitivity of BChE relative to AChE to inhibition in vitro,"BChE in rat heart; heart and cortex, both age groups",3.5–12 times
same,[3H]Oxotremorine-M maximum displacement,[1]; adult heart membranes,50 ± 3%
same,[3H]Oxotremorine-M maximum displacement,[1]; aging heart membranes,39 ± 4%
same,[3H]Oxotremorine-M maximum displacement,[2]; adult cortex membranes,51 ± 2%
same,[3H]Oxotremorine-M maximum displacement,[2]; aging cortex membranes,49 ± 3%
same,Nature of interaction with cardiac muscarinic receptors ([3H]OXO binding sites),[3],irreversible
"CCOP(=S)(OCC)Oc1nc(Cl)c(Cl)cc1Cl [Chlorpyrifos, O,O′-diethyl-O-3,5,6-trichloro-2-pyridinyl phosphorothioate]",Displacement of [3H]OXO radioligand binding (in words),"[1]; heart, adult and aging rats, 30 pM-3 μM",did not displace
same,Displacement of [3H]OXO radioligand binding (in words),"[2]; cortex, adult and aging rats, 30 pM-3 μM",did not displace
same,oral LD50,rats [4],about 100 mg/kg
same,Sensitivity of aged rats to acute toxicity relative to adults,rats [5],similar
"COP(=O)(OC)Oc1ccc([N+](=O)[O-])cc1 [Methyl paraoxon, O,O′-dimethyl-p-nitrophenyl-phosphate]",Sensitivity of AChE relative to BChE to inhibition,AChE in rat heart,~ 2 fold
same,[3H]Oxotremorine-M maximum displacement,[1]; adult heart membranes,37 ± 3%
same,[3H]Oxotremorine-M maximum displacement,[1]; aging heart membranes,29 ± 3%
same,[3H]Oxotremorine-M maximum displacement,[2]; adult cortex membranes,33 ± 2%
same,[3H]Oxotremorine-M maximum displacement,[2]; aging cortex membranes,36 ± 2%
same,"[3H]OXO displacement IC50 in aging cortex, fold higher than adult cortex",[2]; aging versus adult cortex,~ 10 fold
"COP(=S)(OC)Oc1ccc([N+](=O)[O-])cc1 [Methyl parathion, O,O′-dimethyl-p-nitrophenyl-phosphorothioate]",[3H]Oxotremorine-M maximum displacement,[1]; adult heart membranes,31 ± 3%
same,[3H]Oxotremorine-M maximum displacement,[1]; aging heart membranes,26 ± 2%
same,[3H]Oxotremorine-M maximum displacement,[2]; adult cortex membranes,22 ± 3%
same,[3H]Oxotremorine-M maximum displacement,[2]; aging cortex membranes,20 ± 3%
same,Nature of interaction with cardiac muscarinic receptors ([3H]OXO binding sites),[3],reversibly
same,oral LD50,rats [4],about 20 mg/kg
"CC(C)NP(=O)(NC(C)C)OP(=O)(NC(C)C)NC(C)C [iso-OMPA, tetraisopropylpyrophosphoramide]",IC50,BChE in rat heart,200 nM
same,"IC50 against BChE in heart, fold lower than in cortex","BChE in rat heart; adult and aging, heart versus cortex",~ 10 fold
CCOP(=S)(OCC)Oc1ccc([N+](=O)[O-])cc1 [parathion],Sensitivity of aged rats to acute toxicity relative to adults,rats [5],3 fold

# From publication PMC2572567 (Biochemical pharmacology, 2008)
